According to ChEMBL document CHEMBL3580594, “Synthesis and biological evaluation of 4-substituted fluoronucleoside analogs for the treatment of hepatitis B virus infection” (J Med Chem, 2015):

Legend:
Rattus norvegicus [1] = assay: In vivo drug metabolism in rat bile sample assessed as 1-((2R,3S,4R,5R)-5-azido-3-fluoro-4-hydroxy-5-(hydroxymethyl)tetrahydrofuran-2-yl)-4-(2-hydroxycyclopropylamino)pyrimidin-2(1H)-one formation by LC-MS/MS analysis; format: ADME, organism-based
Duck hepatitis B virus [2] = assay: Antiviral activity against duck Hepatitis B virus infected in duck assessed as inhibition of viral DNA replication in serum at 0.04 mg/kg/day, po measured after 3 days of treatment withdrawal; format: functional; conditions: 72 h
Hepatitis B virus [3] = assay: Antiviral activity against Hepatitis B virus in HepG2.2.15 cells assessed as inhibition of extracellular viral DNA replication at 1 uM after 6 days by real-time FQ-PCR analysis; format: functional; conditions: HepG2 2.2.15, 144 h
Hepatitis B virus [4] = assay: Antiviral activity against Hepatitis B virus in HepG2.2.15 cells assessed as inhibition of intracellular viral DNA replication at 1 uM after 3 days by real-time FQ-PCR analysis; format: functional; conditions: HepG2 2.2.15, 72 h
Mus musculus [5] = assay: Toxicity in KM mouse assessed as peripheral WBC number in blood per liter at 10 mg/kg/day, po 5 doses (reference value: 7.47 +/- 33.77 /L x 10^-9 cells); format: organism-based; conditions: in vivo
Duck hepatitis B virus [6] = assay: Antiviral activity against duck Hepatitis B virus infected in duck assessed as inhibition of viral DNA replication in serum at 0.2 mg/kg/day, po treatment initiated at day 5 after infection relative to control; format: functional; conditions: 120 h
Hepatitis B virus [7] = assay: Antiviral activity against Hepatitis B virus in HepG2.2.15 cells assessed as inhibition of intracellular viral DNA replication at 5 uM after 6 days by real-time FQ-PCR analysis; format: functional; conditions: HepG2 2.2.15, 144 h
Duck hepatitis B virus [8] = assay: Antiviral activity against duck Hepatitis B virus infected in duck assessed as inhibition of viral DNA replication in liver at 1 mg/kg/day, po measured after 3 days of treatment withdrawal; format: functional; conditions: 72 h
Hepatitis B virus [9] = assay: Antiviral activity against Hepatitis B virus in HepG2.2.15 cells assessed as inhibition of intracellular viral DNA replication at 5 uM after 9 days by real-time FQ-PCR analysis; format: functional; conditions: HepG2 2.2.15, 216 h
Duck hepatitis B virus [10] = assay: Antiviral activity against duck Hepatitis B virus infected in duck assessed as inhibition of viral DNA replication in liver at 0.2 mg/kg/day, po treatment initiated at day 10 after infection relative to control; format: functional; conditions: 240 h
Hepatitis B virus [11] = assay: Antiviral activity against Hepatitis B virus in HepG2.CW cells assessed as inhibition of viral DNA replication at 1 uM after 9 days by real-time FQ-PCR analysis; format: functional; conditions: 216 h
Mus musculus [12] = assay: Toxicity in KM mouse assessed as micronucleus frequency in bone marrow polychromatic erythrocyte at 10 mg/kg, po single dose after 48 hrs (reference value: 1.20 +/- 0.45 %); format: organism-based; conditions: in vivo
Mus musculus [13] = assay: Toxicity in KM mouse assessed as peripheral WBC number in blood per liter at 20 mg/kg/day, po 5 doses (reference value: 7.47 +/- 33.77 /L x 10^-9 cells); format: organism-based; conditions: in vivo
Hepatitis B virus [14] = assay: Antiviral activity against Hepatitis B virus in HepG2.2.15 cells assessed as inhibition of intracellular viral DNA replication at 1 uM after 6 days by real-time FQ-PCR analysis; format: functional; conditions: HepG2 2.2.15, 144 h
Duck hepatitis B virus [15] = assay: Antiviral activity against duck Hepatitis B virus infected in duck assessed as inhibition of viral DNA replication in serum at 0.2 mg/kg/day, po treatment initiated at day 10 after infection relative to control; format: functional; conditions: 240 h
Mus musculus [16] = assay: Toxicity in KM mouse assessed as micronucleus frequency in bone marrow polychromatic erythrocyte at 40 mg/kg, po single dose after 48 hrs (reference value: 2.20 +/- 0.84 %); format: organism-based; conditions: in vivo
Mus musculus [17] = assay: Toxicity in KM mouse assessed as peripheral WBC number in blood per liter at 80 mg/kg, po single dose after 48 hrs (reference value: 11.10 x 2.69/L x 10^-9); format: organism-based; conditions: in vivo
Mus musculus [18] = assay: Toxicity in KM mouse assessed as peripheral WBC number in blood per liter at 20 mg/kg, po single dose after 48 hrs (reference value: 11.10 x 2.69/L x 10^-9 cells); format: organism-based; conditions: in vivo
Hepatitis B virus [19] = assay: Antiviral activity against Hepatitis B virus in HepG2.2.15 cells assessed as inhibition of extracellular viral DNA replication at 1 uM after 9 days by real-time FQ-PCR analysis; format: functional; conditions: HepG2 2.2.15, 216 h
Hepatitis B virus [20] = assay: Antiviral activity against Hepatitis B virus in HepG2.2.15 cells assessed as inhibition of intracellular viral DNA replication at 1 uM after 9 days by real-time FQ-PCR analysis; format: functional; conditions: HepG2 2.2.15, 216 h
Duck hepatitis B virus [21] = assay: Antiviral activity against duck Hepatitis B virus infected in duck assessed as inhibition of viral DNA replication in liver at 0.04 mg/kg/day, po measured after 3 days of treatment withdrawal; format: functional; conditions: 72 h
Hepatitis B virus [22] = assay: Antiviral activity against Hepatitis B virus in HepG2.2.15 cells assessed as inhibition of intracellular/extracellular viral DNA replication after 3 to 9 days by real-time FQ-PCR analysis; format: functional, organism-based; conditions: HepG2 2.2.15
Mus musculus [23] = assay: Acute toxicity in KM mouse assessed as weight loss at 3 g/kg, iv suspended in 0.5% CMC/Na solution after 14 days; format: organism-based; conditions: in vivo, 3000 mg/kg, 336 h
Hepatitis B virus [24] = assay: Antiviral activity against Hepatitis B virus in HepG2.2.15 cells assessed as inhibition of extracellular viral DNA replication at 0.2 uM after 6 days by real-time FQ-PCR analysis; format: functional; conditions: HepG2 2.2.15, 144 h
Duck hepatitis B virus [25] = assay: Antiviral activity against duck Hepatitis B virus infected in duck assessed as inhibition of viral DNA replication in serum at 1 mg/kg/day, po measured after 3 days of treatment withdrawal; format: functional; conditions: 72 h
Rattus norvegicus [26] = species: Rattus norvegicus; assay: Drug metabolism in rat urine sample assessed as 4-amino-1-((2R,3S,4R,5R)-5-azido-3-fluoro-4-hydroxy-5-(hydroxymethyl)tetrahydrofuran-2-yl)pyrimidin-2(1H)-one formation by NMR spectrum; format: ADME, organism-based; conditions: in vivo
Duck hepatitis B virus [27] = assay: Antiviral activity against duck Hepatitis B virus infected in duck assessed as inhibition of viral DNA replication in serum at 1 mg/kg/day, po treatment initiated at day 5 after infection relative to control; format: functional; conditions: 120 h
Duck hepatitis B virus [28] = assay: Antiviral activity against duck Hepatitis B virus infected in duck assessed as inhibition of viral DNA replication in liver at 0.04 mg/kg/day, po treatment initiated at day 5 after infection relative to control; format: functional; conditions: 120 h
Duck hepatitis B virus [29] = assay: Antiviral activity against duck Hepatitis B virus infected in po dosed duck assessed as inhibition of viral DNA replication in serum; format: functional, organism-based
Mus musculus [30] = assay: Toxicity in KM mouse assessed as micronucleus frequency in bone marrow polychromatic erythrocyte at 5 mg/kg, po single dose after 48 hrs (reference value: 1.20 +/- 0.45 %); format: organism-based; conditions: in vivo
Rattus norvegicus [31] = species: Rattus norvegicus; assay: Drug metabolism in rat urine sample assessed as 4-amino-1-((2R,3S,4R,5R)-5-azido-3-fluoro-4-hydroxy-5-(hydroxymethyl)tetrahydrofuran-2-yl)pyrimidin-2(1H)-one formation by LC-MS/MS analysis; format: ADME, organism-based; conditions: in vivo
Duck hepatitis B virus [32] = assay: Antiviral activity against duck Hepatitis B virus infected in po dosed duck assessed as inhibition of viral DNA replication in liver; format: functional, organism-based
Rattus norvegicus [33] = assay: In vivo drug metabolism in rat urine sample assessed as 1-((2R,3S,4R,5R)-5-azido-3-fluoro-4-hydroxy-5-(hydroxymethyl)tetrahydrofuran-2-yl)-4-(2-hydroxycyclopropylamino)pyrimidin-2(1H)-one formation by LC-MS/MS analysis; format: ADME, organism-based

## [N-]=[N+]=N[C@]1(CO)O[C@@H](n2ccc(NC3CC3)nc2=O)[C@@H](F)[C@@H]1O
Rattus norvegicus [1]
  Drug metabolism: metabolite_detected
Duck hepatitis B virus [2]
  inhibition in vivo at 0.04 mg/kg/day: 47.1%
Hepatitis B virus [3]
  inhibition at 1 µM: 76.7%
Hepatitis B virus [4]
  inhibition at 1 µM: 39.2%
Mus musculus [5]
  Activity: 8.09 ×10⁹ /L
Duck hepatitis B virus [6]
  inhibition in vivo at 0.2 mg/kg/day: 62.5%
Hepatitis B virus [7]
  inhibition at 5 µM: 53%
Duck hepatitis B virus [8]
  inhibition in vivo at 1 mg/kg/day: 76.1%
Hepatitis B virus [9]
  inhibition at 5 µM: 68.2%
Duck hepatitis B virus [10]
  inhibition in vivo at 0.2 mg/kg/day: 68.7%
Hepatitis B virus [11]
  inhibition at 1 µM: 86.6%
Mus musculus [12]
  Activity: 1.4%
Mus musculus [13]
  Activity: 6.53 ×10⁹ /L
Hepatitis B virus [14]
  inhibition at 1 µM: 49.5%
Duck hepatitis B virus [15]
  inhibition in vivo at 0.2 mg/kg/day: 69.5%
Mus musculus [16]
  Activity: 1.4%
Mus musculus [17]
  Activity: 8.26 ×10⁹ /L
Mus musculus [18]
  Activity: 8.84 ×10⁹ /L
Hepatitis B virus [19]
  inhibition at 1 µM: 76.2%
Hepatitis B virus [20]
  inhibition at 1 µM: 56.9%
Duck hepatitis B virus [21]
  inhibition in vivo at 0.04 mg/kg/day: 58.8%
Hepatitis B virus [22]
  inhibition: Dose-dependent effect
Mus musculus [23]
  Activity: Non-toxic
Hepatitis B virus [24]
  inhibition at 0.2 µM: 52%
Duck hepatitis B virus [25]
  inhibition in vivo at 1 mg/kg/day: 69.9%
Rattus norvegicus [26]
  Drug metabolism: metabolite_detected
Duck hepatitis B virus [27]
  inhibition in vivo at 1 mg/kg/day: 71.9%
Duck hepatitis B virus [28]
  inhibition in vivo at 0.04 mg/kg/day: 34.8%
Duck hepatitis B virus [29]
  inhibition: Dose-dependent effect
Mus musculus [30]
  Activity: 1.2%
Rattus norvegicus [31]
  Drug metabolism: metabolite_detected
Duck hepatitis B virus [32]
  inhibition: Dose-dependent effect
Rattus norvegicus [33]
  Drug metabolism: metabolite_detected
